Reference: patent US10294202B2, “Pyrrolidinones as herbicides” (FMC Corporation, priority 2013, dated 2019)

Assays:
barnyardgrass [1] = experiment: Test A pre-/postemergence herbicide test; format: in vivo, Echinochloa crus-galli
In short: (§1)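 Formulated compound (non-phytotoxic solvent, surfactant) sprayed pre- onto soil of seeded loam/sand pots or post- onto seedlings at 1–2 leaves; ~10 d greenhouse; 0–100 visual control rating versus untreated.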

kochia = experiment: Test A pre-/postemergence herbicide test; format: in vivo, Kochia scoparia; details: for Plant response rating, Kochia: 0 to 100 scale
In short: as §1

ragweed = experiment: Test A pre-/postemergence herbicide test; format: in vivo, Ambrosia elatior; details: for Plant response rating, Ragweed: 0 to 100 scale
In short: as §1

ryegrass, Italian = experiment: Test A pre-/postemergence herbicide test; format: in vivo, Lolium multiflorum; details: for Plant response rating, Ryegrass, Italian: 0 to 100 scale
In short: as §1

giant foxtail = experiment: Test A pre-/postemergence herbicide test; format: in vivo, Setaria faberii; details: for Plant response rating, Foxtail, Giant: 0 to 100 scale
In short: as §1

pigweed = experiment: Test A pre-/postemergence herbicide test; format: in vivo, Amaranthus retroflexus; details: for Plant response rating, Pigweed: 0 to 100 scale
In short: as §1

wheat = experiment: Test A pre-/postemergence herbicide test; format: in vivo, Triticum aestivum; details: Postemergence; for Plant response rating, Wheat: 125 g ai/ha, 0 to 100 scale; for Wheat plant response rating (0 to 100 scale, 0 is no effect, 100 is complete control): 500 g ai/ha
In short: as §1

corn = experiment: Test A pre-/postemergence herbicide test; format: in vivo, Zea mays; details: Postemergence; for Plant response rating, Corn: 125 g ai/ha, 0 to 100 scale; for Corn plant response rating (0 to 100 scale, 0 is no effect, 100 is complete control): 500 g ai/ha
In short: as §1

blackgrass = experiment: Test A postemergence herbicide test; format: in vivo, Alopecurus myosuroides; details: for Plant response rating, Blackgrass: 125 g ai/ha, 0 to 100 scale; for Blackgrass plant response rating (0 to 100 scale, 0 is no effect, 100 is complete control): 500 g ai/ha
In short: (§2)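 Young potted plants in a loam–sand mix, one- to two-leaf stage and 2–10 cm tall, receive the test chemical postemergence and stay in a greenhouse for approximately 10 days. Injury is then judged by eye against untreated plants, scored 0 (none) to 100 (complete control).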

galium = experiment: Test A postemergence herbicide test; format: in vivo, Galium aparine; details: for Plant response rating, Galium: 125 g ai/ha, 0 to 100 scale; for Galium plant response rating (0 to 100 scale, 0 is no effect, 100 is complete control): 500 g ai/ha
In short: as §2

rice = experiment: Test B flooded paddy test; format: in vivo, Oryza sativa; details: 500 g ai/ha, Flood; scale of 0 to 100 where 0 is no effect and 100 is complete control
In short: (§3)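 Scored visually 0–100 (0 no effect, 100 complete control) versus controls after 13 to 15 greenhouse days. Treatment: compound added to paddy water kept 3 cm above soil, on 2-leaf-stage plants.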

sedge, umbrella = experiment: Test B flooded paddy test; format: in vivo, Cyperus difformis; details: 500 g ai/ha, Flood; scale of 0 to 100 where 0 is no effect and 100 is complete control
In short: as §3

ducksalad = experiment: Test B flooded paddy test; format: in vivo, Heteranthera limosa; details: 500 g ai/ha, Flood; scale of 0 to 100 where 0 is no effect and 100 is complete control
In short: as §3

barnyardgrass [2] = experiment: Test B flooded paddy test; format: in vivo, Echinochloa crus-galli; details: 500 g ai/ha, Flood; scale of 0 to 100 where 0 is no effect and 100 is complete control
In short: as §3

[3] = 125 g ai/ha, visual rating, 0 to 100 scale, 0 no effect, 100 complete control, approximately 10 days, preemergence
[4] = preemergence, 500 g ai/ha, 0 to 100 scale (0 no effect, 100 complete control)
[5] = 125 g ai/ha, visual rating, 0 no effect, 100 complete control, approximately 10 days, preemergence
[6] = Postemergence, 125 g ai/ha, 0 is no effect, 100 is complete control
[7] = preemergence, 500 g ai/ha, 0 is no effect and 100 is complete control
[8] = 0 is no effect, 100 is complete control
[9] = Postemergence, 125 g ai/ha, 0 no effect, 100 complete control
[10] = 0 no effect, 100 complete control

Row | Structure (SMILES) | Plant response rating, Barnyardgrass (barnyardgrass [1]; [3]) | Barnyardgrass plant response rating (0 to 100 scale, 0 is no effect, 100 is complete control) (barnyardgrass [1]; Postemergence, 500 g ai/ha) | Plant response rating, Barnyardgrass (barnyardgrass [1]; [4]) | Plant response rating, Kochia (kochia; [5]) | Kochia plant response rating (0 to 100 scale, 0 is no effect, 100 is complete control) (kochia; Postemergence, 500 g ai/ha) | Plant response rating, Ragweed (ragweed; [5]) | Ragweed plant response rating (0 to 100 scale, 0 is no effect, 100 is complete control) (ragweed; Postemergence, 500 g ai/ha) | Plant response rating, Ryegrass, Italian (ryegrass, Italian; [5]) | Ryegrass, Italian plant response rating (0 to 100 scale, 0 is no effect, 100 is complete control) (ryegrass, Italian; Postemergence, 500 g ai/ha) | Plant response rating, Foxtail, Giant (giant foxtail; [5]) | Foxtail, Giant plant response rating (0 to 100 scale, 0 is no effect, 100 is complete control) (giant foxtail; Postemergence, 500 g ai/ha) | Plant response rating, Foxtail, Giant (giant foxtail; preemergence, 500 g ai/ha) | Plant response rating, Pigweed (pigweed; [5]) | Pigweed plant response rating (0 to 100 scale, 0 is no effect, 100 is complete control) (pigweed; Postemergence, 500 g ai/ha) | Wheat plant response rating (0 to 100 scale, 0 is no effect, 100 is complete control) (wheat) | Corn plant response rating (0 to 100 scale, 0 is no effect, 100 is complete control) (corn) | Blackgrass plant response rating (0 to 100 scale, 0 is no effect, 100 is complete control) (blackgrass) | Galium plant response rating (0 to 100 scale, 0 is no effect, 100 is complete control) (galium) | Plant response rating, Rice (rice) | Plant response rating, Sedge, Umbrella (sedge, umbrella) | other results
1 | O=C1NCC(c2cccc(C(F)F)c2)C1C(=O)Nc1ccccc1F (racemic) [Compound 163] | 80 | 90 | 90 | 0 | 0 | 0 | 20 | 0 | 30 | 90 | 80 | 90 | 40 | 20 | 60 | 40 | 60 | 60 | 15 | 0 | Plant response rating, Barnyardgrass (barnyardgrass [1]; Postemergence, 125 g ai/ha, 0 to 100 scale, 0 is no effect, 100 is complete control): 90; Plant response rating, Kochia (kochia; [6]): 0; Plant response rating, Kochia (kochia; [7]): 50; Plant response rating, Ragweed (ragweed; [6]): 0; Plant response rating, Ragweed (ragweed; [7]): 40; Plant response rating, Ryegrass, Italian (ryegrass, Italian; [6]): 0; Plant response rating, Ryegrass, Italian (ryegrass, Italian; [7]): 0; Plant response rating, Foxtail, Giant (giant foxtail; [6]): 70; Plant response rating, Pigweed (pigweed; [6]): 0; Plant response rating, Pigweed (pigweed; [7]): 40; Plant response rating, Wheat (wheat; [8]): 20; Plant response rating, Corn (corn; [8]): 10; Plant response rating, Blackgrass (blackgrass; [8]): 50; Plant response rating, Galium (galium; [8]): 20; Plant response rating, Ducksalad (ducksalad): 100; Plant response rating, Barnyardgrass (barnyardgrass [2]): 90
2 | Cc1cc(C2CNC(=O)C2C(=O)Nc2ccc(F)cc2F)ccc1F (racemic) [Compound 140] | 80 | 80 | 90 | 0 | 0 | 0 | 0 | 0 | 0 | 50 | 50 | 90 | 0 | 0 | 0 | 0 | 20 | 30 | 0 | 0 | Plant response rating, Barnyardgrass (barnyardgrass [1]; Postemergence, 125 g ai/ha, 0 to 100 scale, 0 no effect, 100 complete control): 70; Plant response rating, Kochia (kochia; [9]): 0; Plant response rating, Kochia (kochia; preemergence, 500 g ai/ha): 0; Plant response rating, Ragweed (ragweed; [9]): 0; Plant response rating, Ragweed (ragweed; preemergence, 500 g ai/ha): 0; Plant response rating, Ryegrass, Italian (ryegrass, Italian; [9]): 0; Plant response rating, Ryegrass, Italian (ryegrass, Italian; preemergence, 500 g ai/ha): 0; Plant response rating, Foxtail, Giant (giant foxtail; [9]): 0; Plant response rating, Pigweed (pigweed; [9]): 0; Plant response rating, Pigweed (pigweed; preemergence, 500 g ai/ha): 0; Plant response rating, Wheat (wheat; [10]): 0; Plant response rating, Corn (corn; [10]): 0; Plant response rating, Blackgrass (blackgrass; [10]): 0; Plant response rating, Galium (galium; [10]): 0; Plant response rating, Ducksalad (ducksalad): 100; Plant response rating, Barnyardgrass (barnyardgrass [2]): 70
